≈ marks a conversion by molar mass, not a printed value. Like-named read-outs stand apart in the source and are kept apart here.
Legend:
[1] = test system: E. coli MG1655 FabI mutant; test: MIC against fabimycin-resistant E. coli MG1655 colonies (FabI mutants); assay type: cell-based; conditions: Escherichia coli
Description: Selection of resistant mutants. Resistant mutants were selected via the large inoculum method. Briefly, E. coli MG1655 (1.8×10^9 CFU) were plated on 100 mm plates of LB agar containing 64, 32, and 16 μg/mL Debio-1452-NH3. […] Resistant colonies were confirmed by streaking on selective media with the same concentration of Debio-1452-NH3.

in vitro [2] = conditions: dog
Plasma protein binding [3] = test: Plasma protein binding
in vitro [4] = conditions: human, plasma
H. sapiens A549 = test: In-vitro cytotoxicity; assay type: cell-based
CYP 2C19 = CYP 2C19 (Homo sapiens (Human), UniProt P33261); test: biochemical
CYP 2C19, sequence (P33261 whole entry): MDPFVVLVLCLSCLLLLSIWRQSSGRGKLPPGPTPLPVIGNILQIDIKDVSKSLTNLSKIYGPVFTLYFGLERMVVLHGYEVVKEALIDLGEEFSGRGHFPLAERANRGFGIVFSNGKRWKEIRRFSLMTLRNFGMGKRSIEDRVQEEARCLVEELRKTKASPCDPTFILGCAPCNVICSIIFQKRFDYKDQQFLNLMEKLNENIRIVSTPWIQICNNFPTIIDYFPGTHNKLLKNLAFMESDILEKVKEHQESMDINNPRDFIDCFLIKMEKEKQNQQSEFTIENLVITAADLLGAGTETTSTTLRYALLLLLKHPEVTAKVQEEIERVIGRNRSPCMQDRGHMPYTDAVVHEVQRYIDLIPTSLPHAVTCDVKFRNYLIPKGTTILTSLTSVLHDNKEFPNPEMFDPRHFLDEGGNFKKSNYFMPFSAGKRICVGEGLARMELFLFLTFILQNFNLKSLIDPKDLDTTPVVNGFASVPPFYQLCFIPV

A. baumannii FabI = A. baumannii FabI (Acinetobacter baumannii, UniProt D0CAD5); test: biochemical
A. baumannii FabI, sequence (D0CAD5 1-288): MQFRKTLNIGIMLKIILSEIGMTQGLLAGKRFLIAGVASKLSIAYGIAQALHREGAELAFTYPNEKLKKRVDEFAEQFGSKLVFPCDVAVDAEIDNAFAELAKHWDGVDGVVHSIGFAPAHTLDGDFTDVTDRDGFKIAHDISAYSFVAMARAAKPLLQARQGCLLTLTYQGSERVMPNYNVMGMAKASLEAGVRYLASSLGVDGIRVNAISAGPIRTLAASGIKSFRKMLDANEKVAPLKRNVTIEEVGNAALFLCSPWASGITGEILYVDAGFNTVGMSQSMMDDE

Plasma protein binding [5] = test: Plasma protein binding; remark: listed apart in the source
H. sapiens HFF-1 = test: In-vitro cytotoxicity; assay type: cell-based
E. coli AR-55 = test: Murine urinary tract infection (UTI) model; assay type: in vivo, C3H/HeJ mice; conditions: TID
Description: FIG. 4. In-vivo efficacy of fabimycin in a murine UTI. After inducing diuresis, infection initiated in C3H/HeJ mice (8 per arm, 1.38×10^9 CFU/mouse transurethral) with E. coli AR-55 and treated with fabimycin at varying concentrations three times daily with bacterial enumeration at 168 h post-infection. Percentage in parenthesis indicates the percentage of animals with bacterial counts below the limit of detection (LOD).
UTIs represent one of the biggest risks for healthy individuals in terms of exposure to antibiotic-resistant bacteria and many individuals contract one in their lifetime (roughly 1 in 2 women and 1 in 10 men); as such, these infections from Gram-negative pathogens, particularly those that are drug-resistant, remain a major clinical challenge. As E. coli is the causative agent in the great majority of UTIs fabimycin was evaluated in a murine UTI model with a challenging, extensively resistant strain of carbapenem resistant E. coli (fabimycin MIC=2 μg/mL). When dosed at 33.3 mg/kg, TID fabimycin was able to achieve 3.0, 2.8, 2.9, and 1.9 log10 reductions in bacterial load relative to the vehicle in the spleen, bladder, liver, and kidneys tissues, respectively (FIG. 4).
Chart 1. Summary of Fabimycin in vivo models. Log reductions are relative to the vehicle. • S. aureus • Neutropenic thigh infection w/S. aureus USA300 LAC • 5 mg/kg, r.o. • 26 h, 2.6 log reduction • A. baumannii • Neutropenic thigh infection w/A. baumannii AR-0299 • 50 mg/kg, intramuscular (2, 6, and 11 h post-infection) • 26 h, 2.3 log reduction • Acute lung infection w/A. baumannii AR-0299 • 50 mg/kg, intramuscular (QD) • 48 h, 3.9 log reduction • Neutropenic thigh infection w/A. baumannii AR-0088 • 75 mg/kg IV, QID • 26 h, 1.75 log reduction • E. coli • Urinary tract infection w/E. coli AR-0055 • 33.3 mg/kg IV, TID (100 mg/kg a day) • 168 h post-infection • Bladder—2.78 log reduction • Liver—2.85 log reduction • Spleen—3.04 log reduction • Kidneys—1.85 log reduction • Urine—2.32 log reduction

[6] = 33.3 mg/kg IV, 168 h post-infection

With `Cc1c(CN(C)C(=O)/C=C/c2cnc3c(c2)CC[C@H](N)C(=O)N3)oc2ccccc12` [(S)-11, (S,E)-3-(7-amino-8-oxo-6,7,8,9-tetrahydro-5H-pyrido[2,3-b]azepin-3-yl)-N-methyl-N-((3-methylbenzofuran-2-yl)methyl)acrylamide] the MIC ([1]; MG1655, read-out: MIC, FabI mutant G148A) was 64 to 128 µg/mL (≈ 158 to 316 µM), the MIC ([1]; MG1655, read-out: MIC, FabI mutant H209P) was 61 to 128 µg/mL (≈ 151 to 316 µM) and the efflux ratio (in vitro [2]; MDCK-MDR1) was 9.4. For the same compound, the Papp (in vitro [2]; MDCK-MDR1, MDR1-MDCK Permeability Papp A:B) was 0.6 ×10⁻⁶ cm/s, the Papp (in vitro [2]; MDCK-MDR1, MDR1-MDCK Permeability Papp B:A) was 5.7 ×10⁻⁶ cm/s and the “Plasma protein binding, Mouse” value (Plasma protein binding [3]; Mouse) was 96%. The fraction unbound (Plasma protein binding [3]; mouse, plasma) was 0.04, the half-life (in vitro [4]) was 23.3 h and the inhibition at 30 µM (H. sapiens A549) was -1.2 ± 3.5%. The IC50 (H. sapiens A549; cytotoxicity) was 114 ± 3 µM, the IC50 (CYP 2C19) was 60 µM and the “fold change in Ki^app relative to Debio-1452-NH3” value (A. baumannii FabI; A. baumannii FabI, 3 vs. 114 nM) was over 30 fold. For the same compound, the Ki (A. baumannii FabI; purified FabI, apparent inhibition constant, read-out: A. baumannii FabI Ki^app) was 0.003 µM, the “fold more potent than (R)-11 against A. baumannii FabI” value (A. baumannii FabI; relative to opposite enantiomer (R)-11) was about 30 fold and the “Plasma protein binding, Human” value (Plasma protein binding [5]; Human) was 94%. It also gave a fraction unbound (Plasma protein binding [5]; human, plasma) of 0.06, an inhibition at 30 µM (H. sapiens HFF-1) of 9.5 ± 3.4% and an IC50 (H. sapiens HFF-1; cytotoxicity) of 112 ± 11 µM. The “log reduction relative to the vehicle, Bladder” value (E. coli AR-55; [6]) was 2.78 log, the “log reduction relative to the vehicle, Kidneys” value (E. coli AR-55; [6]) was 1.85 log and the “log reduction relative to the vehicle, Liver” value (E. coli AR-55; [6]) was 2.85 log. For the same compound, the “log reduction relative to the vehicle, Spleen” value (E. coli AR-55; [6]) was 3.04 log, the “log reduction relative to the vehicle, Urine” value (E. coli AR-55; [6]) was 2.32 log and the “log10 reduction in bacterial load relative to the vehicle, bladder” value (E. coli AR-55; 33.3 mg/kg) was 2.8 log10. For the same compound, the “log10 reduction in bacterial load relative to the vehicle, kidneys” value (E. coli AR-55; 33.3 mg/kg) was 1.9 log10, the “log10 reduction in bacterial load relative to the vehicle, liver” value (E. coli AR-55; 33.3 mg/kg) was 2.9 log10 and the “log10 reduction in bacterial load relative to the vehicle, spleen” value (E. coli AR-55; 33.3 mg/kg) was 3.0 log10.

Source: US20240190872A1, “FABI INHIBITORS FOR GRAM-NEGATIVE PATHOGENS” (THE BOARD OF TRUSTEES OF THE UNIVERSITY OF ILLINOIS, priority 2021, published 2024)
